In ChEMBL document CHEMBL1132138, “Leishmanicidal activity of combretastatin analogues and heteroanalogues” (Bioorg Med Chem Lett, 1999):
The source made the active and inactive calls. The rule behind the calls is not given here.

How the values were obtained:
Assay type in all cases: functional, organism-based
Leishmania braziliensis [1] = experiment: In vitro evaluation of leishmanicidal activity against Leishmania brasiliensis (2903) at a dose 100 ug/mL; ++ = 80- 90% lysis
Leishmania amazonensis [2] = experiment: In vitro evaluation of leishmanicidal activity against Leishmania amazonensis (PH8) at a dose 100 ug/mL; ++ = 80- 90% lysis
Leishmania donovani [3] = experiment: In vitro evaluation of leishmanicidal activity against Leishmania donovani (PP75) at a dose 100 ug/mL; ++ = 80- 90% lysis
Leishmania braziliensis [4] = experiment: In vitro evaluation of leishmanicidal activity against Leishmania brasiliensis (2903) at a dose 10 ug/mL; ++ = 80- 90% lysis
Leishmania amazonensis [5] = experiment: In vitro evaluation of leishmanicidal activity against Leishmania amazonensis (PH8) at a dose 10 ug/mL; ++ = 80- 90% lysis
Leishmania donovani [6] = experiment: In vitro evaluation of leishmanicidal activity against Leishmania donovani (PP75) at a dose 10 ug/mL; ++ = 80- 90% lysis
Leishmania amazonensis [7] = experiment: In vitro evaluation of leishmanicidal activity against Leishmania amazonensis (PH8) at a dose 25 ug/mL; ++ = 80- 90% lysis
Leishmania braziliensis [8] = experiment: In vitro evaluation of leishmanicidal activity against Leishmania brasiliensis (2903) at a dose 25 ug/mL; ++ = 80- 90% lysis
Leishmania donovani [9] = experiment: In vitro evaluation of leishmanicidal activity against Leishmania donovani (PP75) at a dose 25 ug/mL; ++ = 80- 90% lysis
Leishmania amazonensis [10] = experiment: In vitro evaluation of leishmanicidal activity against Leishmania amazonensis (PH8) at a dose 100 ug/mL; ++ = 80-90% of lysis
Leishmania braziliensis [11] = experiment: Compound was tested in vitro for leishmanicidal activity against Leishmania brasiliensis (2903) at a dose 100 ug/mL; ++ = 80-90% of lysis
Leishmania donovani [12] = experiment: Compound was tested in vitro for leishmanicidal activity against Leishmania donovani (PP75) at a dose 100 ug/mL; ++ = 80-90% of lysis
Leishmania amazonensis [13] = experiment: In vitro evaluation of leishmanicidal activity against Leishmania amazonensis (PH8) at a dose 50 ug/mL; ++ = 80- 90% lysis
Leishmania braziliensis [14] = experiment: In vitro evaluation of leishmanicidal activity against Leishmania brasiliensis (2903) at a dose 50 ug/mL; ++ = 80- 90% lysis
Leishmania donovani [15] = experiment: In vitro evaluation of leishmanicidal activity against Leishmania donovani (PP75) at a dose 50 ug/mL; ++ = 80- 90% lysis
Leishmania braziliensis [16] = experiment: In vitro evaluation of leishmanicidal activity against Leishmania brasiliensis (2903) at a dose 100 ug/mL; + = <70% lysis
Leishmania amazonensis [17] = experiment: In vitro evaluation of leishmanicidal activity against Leishmania amazonensis (PH8) at a dose 100 ug/mL; + = <70% lysis
Leishmania donovani [18] = experiment: In vitro evaluation of leishmanicidal activity against Leishmania donovani (PP75) at a dose 100 ug/mL; + = <70% lysis
Leishmania amazonensis [19] = experiment: In vitro evaluation of leishmanicidal activity against Leishmania amazonensis (PH8) at a dose 50 ug/mL;++ = 80- 90% lysis
Leishmania amazonensis [20] = experiment: In vitro evaluation of leishmanicidal activity against Leishmania amazonensis (PH8) at a dose 100 ug/mL; +++=total lysis of parasites
Leishmania amazonensis [21] = experiment: In vitro evaluation of leishmanicidal activity against Leishmania amazonensis (PH8) at a dose 25 ug/mL; Total lysis of parasites
Leishmania amazonensis [22] = experiment: In vitro evaluation of leishmanicidal activity against Leishmania amazonensis (PH8) at a dose 50 ug/mL; Total lysis of parasites
Leishmania braziliensis [23] = experiment: In vitro evaluation of leishmanicidal activity against Leishmania brasiliensis (2903) at a dose 100 ug/mL; +++=total lysis of parasites
Leishmania braziliensis [24] = experiment: In vitro evaluation of leishmanicidal activity against Leishmania brasiliensis (2903) at a dose 25 ug/mLv
Leishmania braziliensis [25] = experiment: In vitro evaluation of leishmanicidal activity against Leishmania brasiliensis (2903) at a dose 50 ug/mL; +++=total lysis of parasites
Leishmania braziliensis [26] = experiment: In vitro evaluation of leishmanicidal activity against Leishmania brasiliensis (2903) at a dose 10 ug/mL; +++=total lysis of parasites
Leishmania amazonensis [27] = experiment: In vitro evaluation of leishmanicidal activity against Leishmania amazonensis (PH8) at a dose 10 ug/mL; +++=total lysis of parasites
Leishmania donovani [28] = experiment: In vitro evaluation of leishmanicidal activity against Leishmania donovani (PP75) at a dose 10 ug/mL; +++=total lysis of parasites
Leishmania donovani [29] = experiment: In vitro evaluation of leishmanicidal activity against Leishmania donovani (PP75) at a dose 25 ug/mL; +++=total lysis of parasites
Leishmania donovani [30] = experiment: In vitro evaluation of leishmanicidal activity against Leishmania donovani (PP75) at a dose 50 ug/mL; +++=total lysis of parasites
Leishmania donovani [31] = experiment: In vitro evaluation of leishmanicidal activity against Leishmania donovani (PP75) at a dose 100 ug/mL; +++=total lysis of parasites

## COc1ccc2[nH]c(-c3ccc4ccccc4c3)c(-c3cc(OC)c(OC)c(OC)c3)c2c1
Leishmania braziliensis [1]
  Leishmanicidal activity: 80- 90% lysis
Leishmania amazonensis [2]
  Leishmanicidal activity: 80- 90% lysis
Leishmania donovani [3]
  Leishmanicidal activity: 80- 90% lysis

## COc1cc(CC(=O)c2ccoc2)cc(OC)c1OC
Leishmania braziliensis [1]
  Leishmanicidal activity: 80- 90% lysis
Leishmania amazonensis [2]
  Leishmanicidal activity: 80- 90% lysis
Leishmania donovani [3]
  Leishmanicidal activity: 80- 90% lysis

## COc1ccc(CCc2ccco2)cc1O
Leishmania braziliensis [1]
  Leishmanicidal activity: 80- 90% lysis
Leishmania amazonensis [2]
  Leishmanicidal activity: 80- 90% lysis
Leishmania donovani [3]
  Leishmanicidal activity: 80- 90% lysis

## COc1ccc2[nH]c(-c3ccco3)c(-c3cc(OC)c(OC)c(OC)c3)c2c1
Leishmania braziliensis [4]
  Leishmanicidal activity: 80- 90% lysis
Leishmania amazonensis [5]
  Leishmanicidal activity: 80- 90% lysis
Leishmania donovani [6]
  Leishmanicidal activity: 80- 90% lysis

## COc1ccc(CC(=O)c2ccco2)cc1O
Leishmania braziliensis [1]
  Leishmanicidal activity: 80- 90% lysis
Leishmania amazonensis [2]
  Leishmanicidal activity: 80- 90% lysis
Leishmania donovani [3]
  Leishmanicidal activity: 80- 90% lysis

## COc1cc(CCc2ccco2)cc(OC)c1OC
Leishmania amazonensis [7]
  Leishmanicidal activity: 80- 90% lysis
Leishmania braziliensis [8]
  Leishmanicidal activity: 80- 90% lysis
Leishmania braziliensis [4]
  Leishmanicidal activity: 80- 90% lysis
Leishmania amazonensis [5]
  Leishmanicidal activity: 80- 90% lysis
Leishmania donovani [6]
  Leishmanicidal activity: 80- 90% lysis
Leishmania donovani [3]
  Leishmanicidal activity: 80- 90% lysis
Leishmania donovani [9]
  Leishmanicidal activity: 80- 90% lysis

## COc1cc(CC2(c3cn(C)c4ccccc34)SCCCS2)cc(OC)c1OC
Leishmania amazonensis [10]
  Leishmanicidal activity: 80-90% of lysis
Leishmania braziliensis [11]
  Leishmanicidal activity: 80-90% of lysis
Leishmania donovani [12]
  Leishmanicidal activity: 80-90% of lysis

## COc1ccc(CCc2ccc3c(c2)OCO3)cc1O
Leishmania amazonensis [13]
  Leishmanicidal activity: 80- 90% lysis
Leishmania braziliensis [14]
  Leishmanicidal activity: 80- 90% lysis
Leishmania braziliensis [1]
  Leishmanicidal activity: 80- 90% lysis
Leishmania amazonensis [2]
  Leishmanicidal activity: 80- 90% lysis
Leishmania donovani [15]
  Leishmanicidal activity: 80- 90% lysis

## COc1cc(CC(O)c2ccco2)cc(OC)c1OC (stereo not given)
Leishmania braziliensis [1]
  Leishmanicidal activity: 80- 90% lysis
Leishmania amazonensis [2]
  Leishmanicidal activity: 80- 90% lysis
Leishmania donovani [3]
  Leishmanicidal activity: 80- 90% lysis

## COc1cc(C(O)C(=O)c2cccs2)cc(OC)c1OC (stereo not given)
Leishmania braziliensis [16]
  Leishmanicidal activity: <70% lysis
Leishmania amazonensis [17]
  Leishmanicidal activity: <70% lysis
Leishmania donovani [18]
  Leishmanicidal activity: <70% lysis

## COc1ccc2[nH]c(-c3ccc4c(c3)OCO4)c(-c3cc(OC)c(OC)c(OC)c3)c2c1
Leishmania amazonensis [19]
  Leishmanicidal activity: 80- 90% lysis
Leishmania braziliensis [14]
  Leishmanicidal activity: 80- 90% lysis
Leishmania donovani [15]
  Leishmanicidal activity: 80- 90% lysis

## N=C(N)c1ccc(OCCCCCOc2ccc(C(=N)N)cc2)cc1
Leishmania amazonensis [20]
  Leishmanicidal activity: Active
Leishmania amazonensis [21]
  Leishmanicidal activity: Active
Leishmania amazonensis [22]
  Leishmanicidal activity: Active
Leishmania braziliensis [23]
  Leishmanicidal activity: Active
Leishmania braziliensis [24]
  Leishmanicidal activity: Active
Leishmania braziliensis [25]
  Leishmanicidal activity: Active
Leishmania braziliensis [26]
  Leishmanicidal activity: Active
Leishmania amazonensis [27]
  Leishmanicidal activity: Active
Leishmania donovani [28]
  Leishmanicidal activity: Active
Leishmania donovani [29]
  Leishmanicidal activity: Active
Leishmania donovani [30]
  Leishmanicidal activity: Active
Leishmania donovani [31]
  Leishmanicidal activity: Active

## COc1cc(CC(=O)c2ccco2)cc(OC)c1OC
Leishmania braziliensis [4]
  Leishmanicidal activity: 80- 90% lysis
Leishmania amazonensis [5]
  Leishmanicidal activity: 80- 90% lysis
Leishmania donovani [6]
  Leishmanicidal activity: 80- 90% lysis

## COc1cc(CC(=O)c2ccc3c(c2)OCO3)cc(OC)c1OC
Leishmania amazonensis [7]
  Leishmanicidal activity: 80- 90% lysis
Leishmania braziliensis [8]
  Leishmanicidal activity: 80- 90% lysis
Leishmania braziliensis [14]
  Leishmanicidal activity: 80- 90% lysis
Leishmania braziliensis [4]
  Leishmanicidal activity: 80- 90% lysis
Leishmania amazonensis [5]
  Leishmanicidal activity: 80- 90% lysis
Leishmania donovani [6]
  Leishmanicidal activity: 80- 90% lysis
Leishmania donovani [9]
  Leishmanicidal activity: 80- 90% lysis

## COc1cc(CCc2ccc3ccccc3c2)cc(OC)c1OC
Leishmania amazonensis [13]
  Leishmanicidal activity: 80- 90% lysis
Leishmania braziliensis [14]
  Leishmanicidal activity: 80- 90% lysis
Leishmania donovani [15]
  Leishmanicidal activity: 80- 90% lysis

## COc1cc(CCc2ccoc2)cc(OC)c1OC
Leishmania braziliensis [16]
  Leishmanicidal activity: <70% lysis
Leishmania donovani [18]
  Leishmanicidal activity: <70% lysis

## COc1cc(CCc2cn(C)c3ccccc23)cc(OC)c1OC
Leishmania amazonensis [7]
  Leishmanicidal activity: 80- 90% lysis
Leishmania braziliensis [8]
  Leishmanicidal activity: 80- 90% lysis
Leishmania braziliensis [4]
  Leishmanicidal activity: 80- 90% lysis
Leishmania amazonensis [5]
  Leishmanicidal activity: 80- 90% lysis
Leishmania donovani [6]
  Leishmanicidal activity: 80- 90% lysis
Leishmania donovani [9]
  Leishmanicidal activity: 80- 90% lysis

## COc1cc(CC(=O)c2ccc(C)o2)cc(OC)c1OC
Leishmania braziliensis [4]
  Leishmanicidal activity: 80- 90% lysis
Leishmania amazonensis [5]
  Leishmanicidal activity: 80- 90% lysis
Leishmania donovani [6]
  Leishmanicidal activity: 80- 90% lysis
Leishmania donovani [3]
  Leishmanicidal activity: 80- 90% lysis

## COc1cc(CC(O)c2ccc3c(c2)OCO3)cc(OC)c1OC (stereo not given)
Leishmania amazonensis [7]
  Leishmanicidal activity: 80- 90% lysis
Leishmania amazonensis [13]
  Leishmanicidal activity: 80- 90% lysis
Leishmania braziliensis [8]
  Leishmanicidal activity: 80- 90% lysis
Leishmania braziliensis [14]
  Leishmanicidal activity: 80- 90% lysis
Leishmania braziliensis [4]
  Leishmanicidal activity: 80- 90% lysis
Leishmania amazonensis [5]
  Leishmanicidal activity: 80- 90% lysis
Leishmania donovani [6]
  Leishmanicidal activity: 80- 90% lysis
Leishmania donovani [9]
  Leishmanicidal activity: 80- 90% lysis
Leishmania donovani [15]
  Leishmanicidal activity: 80- 90% lysis
